# The supplement of paper PMC4862054
# “And” between values parts separate entries of the source, which are not always exact repeats. Equal values may be shown once.
# Assays:
# Details in all cases: incubation time: 72 h
# HDQ-P1 [1] = experiment: normalised viability (% of control), CellTiter-Blue; higher = more viable cells (about 100 = DMSO control)
# Summary of the method: (§1)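 Compound dissolved in 5 µl medium was pre-loaded into 384-well plates, and breast cancer cell lines in 20 µl suspension were seeded on top and incubated 72 h. After adding 2.5 µl CellTiter-Blue reagent for 2 h at 37 °C, fluorescence was read at 560/590 nm. Plates were normalised to vehicle (100) and a positive kill control (0), with Z'-factor quality control. Each value is normalised viability at a single listed concentration from the series.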
# MDA-MB-436 [2] = experiment: as above
# Summary of the method: as §1
# HCC1143 [3] = experiment: as above
# Summary of the method: as §1
# CAL-148 = experiment: as above
# Summary of the method: as §1
# MDA-MB-453 = experiment: as above
# Summary of the method: as §1
# DU-4475 = experiment: as above
# Summary of the method: as §1
# MFM-223 [4] = experiment: as above
# Summary of the method: as §1
# SK-BR-3 [5] = experiment: as above
# Summary of the method: as §1
# CAL-120 = experiment: as above
# Summary of the method: as §1
# MDA-MB-468 = experiment: as above
# Summary of the method: as §1
# MDA-MB-231 [6] = experiment: as above
# Summary of the method: as §1
# CAL-85-1 [7] = experiment: as above
# Summary of the method: as §1
# HCC1599 [8] = experiment: as above
# Summary of the method: as §1
# BT-549 = experiment: as above
# Summary of the method: as §1
# HCC1937 = experiment: as above
# Summary of the method: as §1
# HDQ-P1 [9] = experiment: drug sensitivity score (DSS), CellTiter-Blue viability (DSS (AUC-based score)); higher = stronger viability inhibition; extreme values may be limits of the assay
# Protocol: (§2)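 DSRT with the CellTiter-Blue (resazurin reduction) viability readout, fluorescence 560/590 nm, 72 h incubation. Plates were normalised to DMSO and benzethonium chloride controls. DSS is computed from the area under the fitted dose-response curve (5 or 9 concentrations).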
# BT-474 = experiment: as above
# Protocol: as §2
# MDA-MB-436 [10] = experiment: as above
# Protocol: as §2
# HCC1143 [11] = experiment: as above
# Protocol: as §2
# MFM-223 [12] = experiment: as above
# Protocol: as §2
# SK-BR-3 [13] = experiment: as above
# Protocol: as §2
# MDA-MB-231 [14] = experiment: as above
# Protocol: as §2
# CAL-85-1 [15] = experiment: as above
# Protocol: as §2
# HCC1599 [16] = experiment: as above
# Protocol: as §2
compound,measurement,setting,value
CO[C@H](C(=O)[C@@H](O)[C@@H](C)O)[C@@H]1Cc2cc3cc(O[C@H]4C[C@@H](O[C@@H]5C[C@@H](O)[C@H](O)[C@@H](C)O5)[C@H](O)[C@@H](C)O4)c(C)c(O)c3c(O)c2C(=O)[C@H]1O[C@H]1C[C@@H](O[C@@H]2C[C@@H](O)[C@@H](O[C@@H]3C[C@](C)(O)[C@H](O)[C@@H](C)O3)[C@@H](C)O2)[C@H](O)[C@@H](C)O1 [Plicamycin],normalised viability,HDQ-P1 [1]; 30 nM,104% and 80.5%
same,normalised viability,HDQ-P1 [1]; 100 nM,68.5% and 44.6%
same,normalised viability,MDA-MB-436 [2]; 10 nM,95.2% and 75.5%
same,normalised viability,MDA-MB-436 [2]; 1000 nM,25.8% and 19.9%
same,normalised viability,MDA-MB-436 [2]; 10000 nM,21.7% and 13.9%
same,normalised viability,HCC1143 [3]; 10 nM,84.9% and 62.2%
same,normalised viability,HCC1143 [3]; 1000 nM,22% and 14.7%
same,normalised viability,HCC1143 [3]; 10000 nM,16.7% and 14.6%
same,normalised viability,CAL-148; 3 nM,87.7%
same,normalised viability,CAL-148; 30 nM,95.3% and 99.5%
same,normalised viability,CAL-148; 100 nM,26% and 38.8%
same,normalised viability,MDA-MB-453; 3 nM,109% and 113%
same,normalised viability,MDA-MB-453; 30 nM,99.8% and 92.6%
same,normalised viability,MDA-MB-453; 100 nM,48.3% and 34.6%
same,normalised viability,DU-4475; 3 nM,85.1% and 89.9%
same,normalised viability,DU-4475; 30 nM,88.7% and 83.8%
same,normalised viability,DU-4475; 100 nM,1.46% and 0.7%
same,normalised viability,MFM-223 [4]; 10 nM,103% and 87.9%
same,normalised viability,MFM-223 [4]; 1000 nM,20.3% and 16.5%
same,normalised viability,MFM-223 [4]; 10000 nM,9.96% and 7.4%
same,normalised viability,SK-BR-3 [5]; 10 nM,111% and 88.8%
same,normalised viability,SK-BR-3 [5]; 1000 nM,6.61% and 5.62%
same,normalised viability,SK-BR-3 [5]; 10000 nM,4.44% and 5.25%
same,normalised viability,CAL-120; 10 nM,89.5% and 75.6%
same,normalised viability,CAL-120; 1000 nM,13.4% and 10.2%
same,normalised viability,CAL-120; 10000 nM,11.9% and 9.12%
same,normalised viability,MDA-MB-468; 10 nM,91.4% and 92.1%
same,normalised viability,MDA-MB-468; 1000 nM,3.16% and 3.32%
same,normalised viability,MDA-MB-468; 10000 nM,2.7% and 3.47%
same,normalised viability,MDA-MB-231 [6]; 10 nM,82.1% and 88.4%
same,normalised viability,MDA-MB-231 [6]; 1000 nM,9.81% and 8.56%
same,normalised viability,MDA-MB-231 [6]; 10000 nM,8.03% and 7.03%
same,normalised viability,CAL-85-1 [7]; 3 nM,87.3% and 88.3%
same,normalised viability,CAL-85-1 [7]; 30 nM,89.2% and 83.9%
same,normalised viability,CAL-85-1 [7]; 100 nM,51.5% and 39.5%
same,normalised viability,HCC1599 [8]; 10 nM,89.6% and 108%
same,normalised viability,HCC1599 [8]; 1000 nM,22.3% and 22.2%
same,normalised viability,HCC1599 [8]; 10000 nM,15.2% and 19.4%
same,normalised viability,BT-549; 10 nM,94.7% and 83.2%
same,normalised viability,BT-549; 1000 nM,6.74% and 5.38%
same,normalised viability,BT-549; 10000 nM,6.68% and 5.22%
same,normalised viability,HCC1937; 10 nM,85.8% and 78.5%
same,normalised viability,HCC1937; 1000 nM,22.1% and 19.5%
same,normalised viability,HCC1937; 10000 nM,29.1% and 20.6%
same,drug sensitivity score,HDQ-P1 [9],17.6 and 22.2
same,drug sensitivity score,BT-474,16.8 and 17.6
same,drug sensitivity score,MDA-MB-436 [10],23.3 and 27.5
same,drug sensitivity score,HCC1143 [11],22.2 and 25.5
same,drug sensitivity score,MFM-223 [12],18.2 and 19
same,drug sensitivity score,SK-BR-3 [13],25 and 27.1
same,drug sensitivity score,MDA-MB-231 [14],26 and 26.4
same,drug sensitivity score,CAL-85-1 [15],22.8 and 23.8
same,drug sensitivity score,HCC1599 [16],18.9 and 20.2
NC(=O)NO [Hydroxyurea],normalised viability,HDQ-P1 [1]; 30 nM,108%
same,normalised viability,HDQ-P1 [1]; 300 nM,122%
same,normalised viability,HDQ-P1 [1]; 1000 nM,111%
same,normalised viability,MDA-MB-436 [2]; 100 nM,99.4%
same,normalised viability,MDA-MB-436 [2]; 10000 nM,89.4%
same,normalised viability,MDA-MB-436 [2]; 100000 nM,102%
same,normalised viability,HCC1143 [3]; 100 nM,99.1%
same,normalised viability,HCC1143 [3]; 10000 nM,99.3%
same,normalised viability,HCC1143 [3]; 100000 nM,92.4%
same,normalised viability,CAL-148; 30 nM,106%
same,normalised viability,CAL-148; 300 nM,116%
same,normalised viability,CAL-148; 1000 nM,112%
same,normalised viability,MDA-MB-453; 30 nM,124%
same,normalised viability,MDA-MB-453; 300 nM,102%
same,normalised viability,MDA-MB-453; 1000 nM,116%
same,normalised viability,DU-4475; 30 nM,122%
same,normalised viability,DU-4475; 300 nM,115%
same,normalised viability,DU-4475; 1000 nM,98.3%
same,normalised viability,MFM-223 [4]; 100 nM,105%
same,normalised viability,MFM-223 [4]; 10000 nM,98.8%
same,normalised viability,MFM-223 [4]; 100000 nM,116%
same,normalised viability,SK-BR-3 [5]; 100 nM,114%
same,normalised viability,SK-BR-3 [5]; 10000 nM,117%
same,normalised viability,SK-BR-3 [5]; 100000 nM,114%
same,normalised viability,CAL-120; 100 nM,113%
same,normalised viability,CAL-120; 10000 nM,95.4%
same,normalised viability,CAL-120; 100000 nM,101%
same,normalised viability,MDA-MB-468; 100 nM,110%
same,normalised viability,MDA-MB-468; 10000 nM,111%
same,normalised viability,MDA-MB-468; 100000 nM,108%
same,normalised viability,MDA-MB-231 [6]; 100 nM,113%
same,normalised viability,MDA-MB-231 [6]; 10000 nM,98.8%
same,normalised viability,MDA-MB-231 [6]; 100000 nM,93.2%
same,normalised viability,CAL-85-1 [7]; 30 nM,104%
same,normalised viability,CAL-85-1 [7]; 300 nM,93.2%
same,normalised viability,CAL-85-1 [7]; 1000 nM,105%
same,normalised viability,HCC1599 [8]; 100 nM,107%
same,normalised viability,HCC1599 [8]; 10000 nM,87.4%
same,normalised viability,HCC1599 [8]; 100000 nM,95.9%
same,normalised viability,BT-549; 100 nM,82.8%
same,normalised viability,BT-549; 10000 nM,93.8%
same,normalised viability,BT-549; 100000 nM,87%
same,normalised viability,HCC1937; 100 nM,86.9%
same,normalised viability,HCC1937; 10000 nM,81.2%
same,normalised viability,HCC1937; 100000 nM,72.7%
same,drug sensitivity score,HDQ-P1 [9],0
same,drug sensitivity score,BT-474,0
same,drug sensitivity score,MDA-MB-436 [10],0
same,drug sensitivity score,HCC1143 [11],0
same,drug sensitivity score,MFM-223 [12],0
same,drug sensitivity score,SK-BR-3 [13],0
same,drug sensitivity score,MDA-MB-231 [14],0
same,drug sensitivity score,CAL-85-1 [15],0
same,drug sensitivity score,HCC1599 [16],0
CN1CCN(c2nc(C3=C(c4c[nH]c5ccccc45)C(=O)NC3=O)c3ccccc3n2)CC1 [Sotrastaurin],normalised viability,HDQ-P1 [1]; 3 nM,88.9%
same,normalised viability,HDQ-P1 [1]; 30 nM,98.8%
same,normalised viability,HDQ-P1 [1]; 100 nM,94.1%
same,normalised viability,MDA-MB-436 [2]; 10 nM,112%
same,normalised viability,MDA-MB-436 [2]; 1000 nM,59.1%
same,normalised viability,MDA-MB-436 [2]; 10000 nM,107%
same,normalised viability,HCC1143 [3]; 10 nM,135%
same,normalised viability,HCC1143 [3]; 1000 nM,119%
same,normalised viability,HCC1143 [3]; 10000 nM,120%
same,normalised viability,CAL-148; 3 nM,115%
same,normalised viability,CAL-148; 30 nM,113%
same,normalised viability,CAL-148; 100 nM,119%
same,normalised viability,MDA-MB-453; 3 nM,102%
same,normalised viability,MDA-MB-453; 30 nM,105%
same,normalised viability,MDA-MB-453; 100 nM,87.7%
same,normalised viability,DU-4475; 3 nM,98.6%
same,normalised viability,DU-4475; 30 nM,94%
same,normalised viability,DU-4475; 100 nM,115%
same,normalised viability,MFM-223 [4]; 10 nM,103%
same,normalised viability,MFM-223 [4]; 1000 nM,93.8%
same,normalised viability,MFM-223 [4]; 10000 nM,74%
same,normalised viability,SK-BR-3 [5]; 10 nM,95.6%
same,normalised viability,SK-BR-3 [5]; 1000 nM,103%
same,normalised viability,SK-BR-3 [5]; 10000 nM,73.1%
same,normalised viability,CAL-120; 10 nM,110%
same,normalised viability,CAL-120; 1000 nM,118%
same,normalised viability,CAL-120; 10000 nM,110%
same,normalised viability,MDA-MB-468; 10 nM,95.6%
same,normalised viability,MDA-MB-468; 1000 nM,93%
same,normalised viability,MDA-MB-468; 10000 nM,89.8%
same,normalised viability,MDA-MB-231 [6]; 10 nM,94.5%
same,normalised viability,MDA-MB-231 [6]; 1000 nM,101%
same,normalised viability,MDA-MB-231 [6]; 10000 nM,124%
same,normalised viability,CAL-85-1 [7]; 3 nM,106%
same,normalised viability,CAL-85-1 [7]; 30 nM,111%
same,normalised viability,CAL-85-1 [7]; 100 nM,130%
same,normalised viability,HCC1599 [8]; 10 nM,121%
same,normalised viability,HCC1599 [8]; 1000 nM,108%
same,normalised viability,HCC1599 [8]; 10000 nM,101%
same,normalised viability,BT-549; 10 nM,82.5%
same,normalised viability,BT-549; 1000 nM,92.8%
same,normalised viability,BT-549; 10000 nM,74.2%
same,normalised viability,HCC1937; 10 nM,54.1%
same,normalised viability,HCC1937; 1000 nM,81.4%
same,normalised viability,HCC1937; 10000 nM,95.1%
same,drug sensitivity score,HDQ-P1 [9],0
same,drug sensitivity score,BT-474,0
same,drug sensitivity score,MDA-MB-436 [10],0
same,drug sensitivity score,HCC1143 [11],0
same,drug sensitivity score,MFM-223 [12],0
same,drug sensitivity score,SK-BR-3 [13],0
same,drug sensitivity score,MDA-MB-231 [14],0
same,drug sensitivity score,CAL-85-1 [15],0
same,drug sensitivity score,HCC1599 [16],0
